Assay results reported in patent US8653087B2, “Pyrido [5, 4-D] pyrimidines as cell proliferation inhibitors” (Boehringer Ingelheim International GmbH, priority 2008, dated 2014).

Target: B-Raf (V600E)-kinase (Homo sapiens (Human), UniProt P15056, V600E)
Assay: Kinase test B-RAF (V600E)
Assay type: biochemical
Conditions: B-RAF (V600E) kinase test, 250 μM ATP
In short: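 B-Raf (V600E) (0.5 ng) preincubated with compound 24 h at RT (5% DMSO), then reacted 60 min at RT with 250 μM ATP and biotinylated MEK1 as substrate. Phospho-MEK (Ser217/221) captured on streptavidin and detected by europium time-resolved fluorescence; IC50 from dose-response curves.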

B-Raf (V600E)-kinase, sequence (P15056 whole entry V600E): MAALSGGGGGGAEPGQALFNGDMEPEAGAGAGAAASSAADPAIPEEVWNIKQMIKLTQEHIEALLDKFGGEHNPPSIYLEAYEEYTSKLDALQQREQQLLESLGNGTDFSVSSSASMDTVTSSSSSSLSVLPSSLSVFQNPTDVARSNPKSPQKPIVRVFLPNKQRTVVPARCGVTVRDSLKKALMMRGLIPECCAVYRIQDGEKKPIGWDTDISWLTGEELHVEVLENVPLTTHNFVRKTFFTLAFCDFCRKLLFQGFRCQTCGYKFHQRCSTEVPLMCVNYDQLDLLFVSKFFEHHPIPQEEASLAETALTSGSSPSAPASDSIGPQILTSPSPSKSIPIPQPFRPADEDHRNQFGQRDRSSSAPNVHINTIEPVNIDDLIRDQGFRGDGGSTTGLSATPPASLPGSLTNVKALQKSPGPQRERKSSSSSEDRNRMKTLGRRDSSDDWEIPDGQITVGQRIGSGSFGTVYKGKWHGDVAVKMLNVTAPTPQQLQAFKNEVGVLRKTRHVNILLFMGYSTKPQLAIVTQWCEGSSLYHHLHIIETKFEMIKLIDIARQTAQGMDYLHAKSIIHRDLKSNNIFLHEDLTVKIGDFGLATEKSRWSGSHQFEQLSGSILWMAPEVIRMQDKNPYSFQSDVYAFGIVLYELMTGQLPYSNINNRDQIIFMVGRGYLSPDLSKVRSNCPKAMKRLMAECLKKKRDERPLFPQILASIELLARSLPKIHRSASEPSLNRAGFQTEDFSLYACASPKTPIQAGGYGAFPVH

IC50 [nM]	Structure (SMILES)
3	Cc1ccc(C(=O)Nc2cccc(S(=O)(=O)N(C)C)c2)cc1Nc1ncnc2cnc(N3CCCC3)nc12 [III-274]
8	COc1ccc(C(=O)Nc2cc(C(C)(C)C)on2)cc1Nc1ncnc2cnc(N(C)C)nc12 [III-83]
543	COc1ccc(NC(=O)c2ccc(C(F)(F)F)c(Nc3ncnc4cnc(N(C)C)nc34)c2)cc1C(F)(F)F [III-54]
2	CN1CCN(c2cc(NC(=O)c3ccc(F)c(Nc4ncnc5cnc(N6CCOCC6)nc45)c3)cc(C(F)(F)F)c2F)CC1 [III-385]
< 1	Cc1ccc(C(=O)Nc2cccc(C(F)(F)F)c2)cc1Nc1ncnc2c(N)nc(N3CCN(C)CC3)nc12 [I-55]
1	COc1ccc(C(=O)Nc2ccc(OC)c(C(F)(F)F)c2)cc1Nc1ncnc2cnc(N3CCCCCC3)nc12 [III-19]
25	Cc1ccc(NC(=O)c2cccc(C(F)(F)F)c2)cc1Nc1ncnc2c(N)nc(N3CCCN(C4CC4)CC3)nc12 [II-10]
3	COc1ccc(NC(=O)c2ccc(C)c(Nc3ncnc4cnc(N(C)CC5CCCO5)nc34)c2)cc1C(F)(F)F (stereo not shown) [III-543]
1	Cc1ccc(C(=O)Nc2cc(C(F)(F)F)ccn2)cc1Nc1ncnc2cnc(N3CC[C@H](F)C3)nc12 [III-345]
8	CN1CCN(c2ncc3ncnc(Nc4cc(Cl)cc(C(=O)Nc5cc(C(C)(C)C)nn5C)c4)c3n2)CC1 [III-378]
26	Cc1ccc(NC(=O)c2cccc(C(F)(F)F)c2)cc1Nc1ncnc2c(N)nc(N3CCN(C)CC3)nc12 [II-1]
9	CCN1CCN(c2cc(NC(=O)c3ccc(C)c(Nc4ncnc5c(N)nc(N6CCCC6)nc45)c3)cc(C(F)(F)F)c2)CC1 [I-87]
1	COc1ccc(NC(=O)c2ccc(F)c(Nc3ncnc4cnc(N(C)CCN5CCCC5)nc34)c2)cc1C(F)(F)F [III-33]
3	COc1ccc(NC(=O)c2ccc(F)c(Nc3ncnc4cnc(N5CCN(C(C)C)CC5)nc34)c2)cc1C(F)(F)F [III-403]
20	Cc1ccc(C(=O)n2nc(C(C)(C)C)cc2N)cc1Nc1ncnc2cnc(NC3CCOC3)nc12 (stereo not shown) [III-354]
5	COc1ccc(C(F)(F)F)cc1NC(=O)c1ccc(C)c(Nc2ncnc3cnc(N4CCN(C)CC4)nc23)c1 [III-299]
4	Cc1ccc(C(=O)Nc2cccc(C(F)(F)F)c2)cc1Nc1ncnc2cnc(N(C)CCN(C)C)nc12 [III-232]
2	CCN1CCN(c2cc(NC(=O)c3ccc(C)c(Nc4ncnc5cnc(N(C)CCOC)nc45)c3)cc(C(F)(F)F)c2)CC1 [III-470]
1	Cc1ccc(C(=O)Nc2cc(C(C)(C)C)on2)cc1Nc1ncnc2c(N)nc(N3CCCN(C)CC3)nc12 [I-11]
2	CC(C)(C)c1cc(NC(=O)c2ccc(Cl)c(Nc3ncnc4cnc(NCCN5CCOCC5)nc34)c2)no1 [III-78]
2	Cc1ccc(C(=O)Nc2cc(N3CCN(C)CC3)cc(C(F)(F)F)c2)cc1Nc1ncnc2cnc(N(C)CCF)nc12 [III-518]
1	CN(C)CCNc1ncc2ncnc(Nc3cc(C(=O)Nc4cc(C(C)(C)C)on4)ccc3F)c2n1 [III-91]

IC50 [nM]	Structure (SMILES)
2	Cc1ccc(NC(=O)c2cccc(C(C)(C)C#N)c2)cc1Nc1ncnc2cnc(N3CCC(F)(F)C3)nc12 [IV-33]
292	Cc1ccc(C(=O)Nc2ccccc2)cc1Nc1ncnc2cnc(N3CCOCC3)nc12 [III-326]
49	Cc1ccc(NS(=O)(=O)C(C)C)cc1Nc1ncnc2cnc(N3CCN(C)CC3)nc12 [IV-58]
1	COCCN1CCN(c2ncc3ncnc(Nc4cc(C(=O)Nc5ccc(F)c(C(F)(F)F)c5)ccc4C)c3n2)CC1 [III-536]
1	Cc1ccc(C(=O)Nc2cccc(N(C)C)c2)cc1Nc1ncnc2cnc(N3CCCCC3)nc12 [III-247]
10	Cc1ccc(C(=O)Nc2cccc(S(=O)(=O)N(C)C)c2)cc1Nc1ncnc2cnc(N3CCCCC3)nc12 [III-334]
8	Cc1ccc(C(=O)Nc2cc(C(C)(C)C)n[nH]2)cc1Nc1ncnc2cnc(N3CCN(C)CC3)nc12 [III-448]
26	Cc1ccc(C(=O)Nc2ccc3c(c2)C(C)(C)C(=O)N3CCN2CCCC2)cc1Nc1ncnc2cnc(N3CCN(C)CC3)nc12 [III-186]
3	COc1ncc2ncnc(Nc3cc(C(=O)Nc4cc(C(C)(C)C)n[nH]4)ccc3C)c2n1 [III-575]
12	COCCN1CCN(c2ncc3ncnc(Nc4cc(C(=O)Nc5cc(C(C)(C)C)nn5C)ccc4C)c3n2)CC1 [III-421]
2	Cc1ccc(C(=O)Nc2cc(C(C)(C)C)n[nH]2)cc1Nc1ncnc2c(N)nc(N3C[C@@H](C)N[C@@H](C)C3)nc12 [I-35]
5	Cc1ccc(C(=O)Nc2ccnc(C(C)(C)C)c2)cc1Nc1ncnc2cnc(N(C)C3CC(N4CCN(C)CC4)C3)nc12 (stereo not shown) [III-597]
< 1	Cc1ccc(NC(=O)c2cccc(C(C)(C)C#N)c2)cc1Nc1ncnc2cnc(NC3CCOC3)nc12 (stereo not shown) [IV-30]
3	CC(C)N1CCN(c2ncc3ncnc(Nc4cc(C(=O)Nc5cc(C(C)(C)C)on5)ccc4F)c3n2)CC1 [III-396]
200	Cc1ccc(C(=O)Nc2nnc(C(F)(F)F)s2)cc1Nc1ncnc2cnc(N3CCOCC3)nc12 [III-313]
7	Cc1ccc(C(=O)Nc2cccc(S(=O)(=O)N(C)C)c2)cc1Nc1ncnc2cnc(N3CC[C@H](F)C3)nc12 [III-293]
9	Cc1ccc(C(=O)Nc2ccc(C(F)(F)F)cc2)cc1Nc1ncnc2c(N)nc(N3CCCN(C)CC3)nc12 [I-3]
4	Cc1ccc(C(=O)Nc2ccc(N(C)CCN(C)C)c(C(F)(F)F)c2)cc1Nc1ncnc2cnc(NCc3ccccn3)nc12 [III-135]
4	COc1ccc(C(C)(C)C)cc1NC(=O)c1ccc(C)c(Nc2ncnc3cnc(N(C)CCN(C)C)nc23)c1 [III-240]
81	Cc1ccc(NC(=O)c2cccc(C(F)(F)F)c2)cc1Nc1ncnc2c(N)nc(NCc3ccncc3)nc12 [II-4]
4	CN1CCCN(c2ncc3ncnc(Nc4cc(C(=O)Nc5cc(C(C)(C)C)on5)ccc4Cl)c3n2)CC1 [III-70]
3	Cc1ccc(C(=O)Nc2ccnc(C(C)(C)C)c2)cc1Nc1ncnc2cnc(N3CCC(CN4CCCC4)CC3)nc12 [III-604]

IC50 [nM]	Structure (SMILES)
5	COCCN(C)c1ncc2ncnc(Nc3cc(C(=O)Nc4cc(C(C)(C)C)on4)ccc3Cl)c2n1 [III-67]
13	COCCN1CCN(c2ncc3ncnc(Nc4cc(C(=O)Nc5cc(C(F)(F)F)ccc5C#N)ccc4C)c3n2)CC1 [III-531]
3	CN(CCN1CCCC1)c1ncc2ncnc(Nc3cc(C(=O)Nc4cc(C(C)(C)C)on4)ccc3Cl)c2n1 [III-71]
< 1	Cc1ccc(C(=O)Nc2cc(OCCN(C)C)cc(C(F)(F)F)c2)cc1Nc1ncnc2cnc(NCCF)nc12 [III-144]
10000	Cc1ccc(C(=O)Nc2nnc(C(F)(F)F)s2)cc1Nc1ncnc2cnc(N(C)CCN(C)C)nc12 [III-280]
< 1	CN1CCN(c2cc(NC(=O)c3ccc(F)c(Nc4ncnc5cnc(NC6CCOC6)nc45)c3)cc(C(F)(F)F)c2F)CC1 (stereo not shown) [III-389]
5	CC(C)(C)c1cc(NC(=O)c2ccc(F)c(Nc3ncnc4cnc(N5CCCCC5)nc34)c2)no1 [III-88]
2	Cn1nc(C(C)(C)C)cc1NC(=O)c1ccc(F)c(Nc2ncnc3cnc(N4CCOCC4)nc23)c1 [III-384]
2	COCCN1CCN(c2ncc3ncnc(Nc4cc(C(=O)Nc5ccc(OC)c(C(F)(F)F)c5)ccc4C)c3n2)CC1 [III-427]
272	Cc1ccc(C(=O)Nc2cc(N(C)CCN(C)C)cc(C(F)(F)F)c2)cc1Nc1ncnc2cnc(N3CCCC3)nc12 [III-440]
1	Cc1ccc(C(=O)Nc2cc(N3CCCN(C)CC3)cc(C(F)(F)F)c2)cc1Nc1ncnc2cnc(N(C)CCF)nc12 [III-514]
7	COc1ccc(NC(=O)c2ccc(Cl)c(Nc3ncnc4cnc(N5CCCCCC5)nc34)c2)cc1C(F)(F)F [III-6]
4	Cc1ccc(C(=O)Nc2cc(C(C)(C)C)n[nH]2)cc1Nc1ncnc2c(N)nc(N3CCN(CC(C)C)CC3)nc12 [I-37]
3	Cc1ccc(C(=O)Nc2cc(C(C)(C)C)on2)cc1Nc1ncnc2cnc(N(C)CC3CCOC3)nc12 (stereo not shown) [III-360]
5	Cc1ccc(C(=O)Nc2cc(C(C)(C)C)n[nH]2)cc1Nc1ncnc2c(N)nc(N3CCN(C4CCCC4)CC3)nc12 [I-39]
1	Cc1ccc(C(=O)Nc2cccc(C(F)(F)F)c2)cc1Nc1ncnc2cnc(N3CCNCC3)nc12 [III-339]
2	Cc1ccc(C(=O)Nc2cc(C(F)(F)F)ccn2)cc1Nc1ncnc2cnc(N3CCCC3)nc12 [III-275]
< 1	Cc1ccc(C(=O)Nc2cccc(C(C)(C)C)c2)cc1Nc1ncnc2cnc(N3CCCN(C)CC3)nc12 [III-224]
3	COc1ccc(NC(=O)c2ccc(Cl)c(Nc3ncnc4cnc(N(C)CCN5CCCC5)nc34)c2)cc1C(F)(F)F [III-8]
7	COCCN1CCN(c2ncc3ncnc(Nc4cc(C(=O)Nc5cc(C(C)(C)C)n[nH]5)ccc4C)c3n2)CC1 [III-425]
3	COCCN(C)c1ncc2ncnc(Nc3cc(C(=O)Nc4ccc(OC)c(C(F)(F)F)c4)ccc3OC)c2n1 [III-17]
18	COc1ccc(NC(=O)c2ccc(C)c(Nc3ncnc4cnc(N5CCN6CCCCC6C5)nc34)c2)cc1C(F)(F)F (stereo not shown) [III-555]

Structure (SMILES)	IC50 [nM]
Cc1ccc(C(=O)Nc2ccc(C#N)c(C(F)(F)F)c2)cc1Nc1ncnc2cnc(N3CCCCC3)nc12 [III-333]	56
